Reference: PubChem BioAssay (NCI)
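Grown in 96-well plates, cells were treated for 48 hours with each compound at five concentrations. Insufficient inhibition: endpoint recorded as highest concentration tested. TGI marks complete inhibition of growth.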

What was measured:
Test in all cases: inhibition of tumour cell growth, NCI panel, 48 h
COLO 205 colon = test system: COLO 205 colon
SW-620 colon = test system: SW-620 colon
NCI-H226 lung = test system: NCI-H226 lung
SN12C renal = test system: SN12C renal
U251 CNS = test system: U251 CNS
IGROV1 ovarian = test system: IGROV1 ovarian
TK-10 renal = test system: TK-10 renal
786-0 renal = test system: 786-0 renal
NCI-H522 lung = test system: NCI-H522 lung
UACC-62 melanoma = test system: UACC-62 melanoma

SMILES	TGI (COLO 205 colon) [µM]	TGI (SW-620 colon) [µM]	TGI (NCI-H226 lung) [µM]	TGI (SN12C renal) [µM]	TGI (U251 CNS) [µM]	TGI (IGROV1 ovarian) [µM]	TGI (TK-10 renal) [µM]	TGI (786-0 renal) [µM]	TGI (NCI-H522 lung) [µM]	TGI (UACC-62 melanoma) [µM]
C=C1C(=O)OC2/C=C(\C)C(OC(C)=O)C3OC3C(C)(O)CC(OC(=O)/C(C)=C/C)C12 (stereo not given)	12.9	1.89	23.4	47.4	24.5	35.7	24.6	16.4	3.37	23.5
C1=C(c2ccccc2)CN(c2ccccc2)OC1	> 100	> 100	> 100	> 100	> 100	> 100	> 100	> 100	> 100	> 100
O=C(Nc1c(O)[nH]c(=S)[nH]c1=O)c1ccccn1	> 100	> 100	> 100	> 100	> 100	> 100	> 100	> 100	> 100	> 100
O=C(COc1ccc(OCC(=O)N2C(=O)CC(=O)N(c3ccccc3)C2=S)cc1)N1C(=O)CC(=O)N(c2ccccc2)C1=S	> 100	> 100	> 100	> 100	> 100	> 100	> 100	> 100	> 100	> 100
O=C(O)[C@H]1[C@@H](C2CCCCC2)O[C@@H](C2CCCCC2)O[C@H]1C(F)(F)F	77.9	52.8	41.6	38.5	34.2	35.9	> 100	33.5	> 100	41.2
C=C(C)[C@@H]1CC[C@]2(C(=O)O)CC[C@]3(C)[C@H](CC[C@@H]4[C@@]5(C)CC(=O)C(C)(C)[C@@H]5CC[C@]43C)[C@@H]12	8.71	> 25	> 25	13.6	> 25	> 25	> 25	> 25	19.7	6.66
